Results taken from patent US9499493B2, “2,4-pyrimidinediamine compounds and their uses” (Rigel Pharmaceuticals, Inc., priority 2002, dated 2016).

Experiments:
[1] = system: cultured human mast cells (CHMC); test: CHMC low cell density IgE activation: tryptase assay; type: cell-based; conditions: anti-IgE
Method in brief: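 Cultured human mast cells (1000-1500 cells/well, donor-dependent) equilibrated 1 hr at 37° C, then stimulated with anti-IgE for 30 min at 37° C. Tryptase released into the supernatant is measured with a fluorogenic tryptase substrate after 30 min at room temperature.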

[2] = system: cultured human mast cells (CHMC); test: CHMC low cell density ionomycin activation: tryptase assay; type: cell-based

Compound	IC50 [1]	IC50 [2]
COC(=O)Cn1ncc2cc(Nc3ncc(F)c(Nc4ccc5c(cnn5CC(=O)OC)c4)n3)ccc21 [R935211, N2,N4-Bis[1-(methoxycarbonyl)methyl-indazoline-5-yl]-5-fluoro-2,4-pyrimidinediamine]	1.24 µM	> 10 µM
CNC(=O)Cn1ncc2ccc(Nc3ncc(F)c(Nc4ccc5c(c4)OCCO5)n3)cc21 [R935212, N4-(3,4-ethylenedioxyphenyl)-5-fluoro-N2-[1-(N-methylaminocarbonyl)methyl-indazoline-6-yl]-2,4-pyrimidinediamine]	1.43 µM	> 10 µM
CNC(=O)c1cc(COc2cccc(Nc3ncc(F)c(Nc4ccc5c(c4)OCCO5)n3)c2)co1 [R935213, N4-(3,4-ethylenedioxyphenyl)-5-fluoro-N2-[3-(2-(N-methylamino)carbonyl-fur-4-yl)methyleneoxyphenyl]-2,4-pyrimidinediamine]	0.619 µM	10 µM
COc1cc(Nc2ncc(F)c(Nc3ccc4c(cnn4C)c3)n2)cc(OC)c1 [R935214, 5-Fluoro-N2-(3,5-dimethoxyphenyl)-N4-(1-methyl-indazoline-5-yl)-2,4-pyrimidinediamine]	0.453 µM	5.5 µM
COC(=O)Cn1ncc2ccc(Nc3nc(Nc4ccc(OC(C)C)cc4)ncc3F)cc21 [R935218, 5-Fluoro-N2-(4-isopropoxyphenyl)-N4-[1-(methoxycarbonyl)methyl-indazoline-6-yl]-2,4-pyrimidinediamine]	4.71 µM	> 10 µM
COC(=O)Cn1ncc2ccc(Nc3nc(Nc4ccc5c(c4)OCCO5)ncc3F)cc21 [R935219, N2-(3,4-Ethylenedioxyphenyl)-5-fluoro-N4-[1-(methoxycarbonyl)methyl-indazoline-6-yl]-2,4-pyrimidinediamine]	5.41 µM	> 10 µM
COC(=O)Cn1ncc2ccc(Nc3nc(Nc4cccc(O)c4)ncc3F)cc21 [R935220, 5-Fluoro-N2-(3-hydroxyphenyl)-N4-[1-(methoxycarbonyl)methyl-indazoline-6-yl]-2,4-pyrimidinediamine]	3.79 µM	> 10 µM
CNC(=O)Cn1ncc2cc(Nc3ncc(F)c(Nc4ccc5c(c4)OCCO5)n3)ccc21 [R935240, N4-(3,4-Ethylenedioxyphenyl)-5-fluoro-N2-[1-(N-methylaminocarbonyl)methyl-indazoline-5-yl]-2,4-pyrimidinediamine]	0.606 µM	> 10 µM
COC(=O)Cn1ncc2cc(Nc3nc(Nc4ccc(OC(C)C)cc4)ncc3F)ccc21 [R935242, 5-Fluoro-N2-(4-isopropoxyphenyl)-N4-[1-(methoxycarbonyl)methyl-indazoline-5-yl]-2,4-pyrimidinediamine]	2.85 µM	> 10 µM
OCCn1ncc2ccc(Nc3ncc(F)c(Nc4ccc5c(c4)OCCO5)n3)cc21 [R935248, N4-(3,4-Ethylenedioxyphenyl)-5-fluoro-N2-[1-(2-hydroxyethyl)indazoline-6-yl]-2,4-pyrimidinediamine]	1.1 µM	> 10 µM
COC(=O)Cn1ncc2cc(Nc3nc(Nc4ccc5c(c4)OCCO5)ncc3F)ccc21 [R935249, N2-(3,4-Ethylenedioxyphenyl)-5-fluoro-N4-[1-(methoxycarbonyl)methyl-indazoline-5-yl]-2,4-pyrimidinediamine]	1.1 µM	> 10 µM
COC(=O)Cn1ncc2cc(Nc3nc(Nc4cccc(O)c4)ncc3F)ccc21 [R935250, 5-Fluoro-N2-(3-hydroxyphenyl)-N4-[1-(methoxycarbonyl)methyl-indazoline-5-yl]-2,4-pyrimidinediamine]	1.1 µM	> 10 µM
CC(C)Oc1ccc(Nc2nc(Nc3ccc4c(cnn4CCO)c3)ncc2F)cc1 [R935255, 5-Fluoro-N2-[1-(2-hydroxyethyl)indazoline-5-yl]-N4-(4-isopropoxyphenyl)-2,4-pyrimidinediamine]	0.374 µM	> 10 µM
OCCn1ncc2cc(Nc3ncc(F)c(Nc4cccc(O)c4)n3)ccc21 [R935256, 5-Fluoro-N2-[1-(2-hydroxyethyl)indazoline-5-yl]-N4-(3-hydroxyphenyl)-2,4-pyrimidinediamine]	0.324 µM	> 10 µM
OCCn1ncc2cc(Nc3nc(Nc4ccc5c(c4)OCCO5)ncc3F)ccc21 [R935258, N2-(3,4-Ethylenedioxyphenyl)-5-fluoro-N4-[1-(2-hydroxyethyl)indazoline-5-yl]-2,4-pyrimidinediamine]	1.19 µM	> 10 µM
OCCn1ncc2cc(Nc3nc(Nc4cccc(O)c4)ncc3F)ccc21 [R935259, 5-Fluoro-N4-[1-(2-hydroxyethyl)indazoline-5-yl]-N2-(3-hydroxyphenyl)-2,4-pyrimidinediamine]	1.78 µM	> 10 µM
Fc1cnc(Nc2ccc3c(c2)OCCO3)nc1Nc1ccc2cn[nH]c2c1 [R935261, N2-(3,4-Ethylenedioxyphenyl)-5-fluoro-N4-(indazoline-6-yl)-2,4-pyrimidinediamine]	0.391 µM	> 10 µM

Compound	IC50 [1]	IC50 [2]
Oc1cccc(Nc2ncc(F)c(Nc3ccc4cn[nH]c4c3)n2)c1 [R935262, 5-Fluoro-N2-(3-hydroxyphenyl)-N4-(indazoline-6-yl)-2,4-pyrimidinediamine]	0.516 µM	> 10 µM
Cc1cc(Nc2ncc(F)c(Nc3ccc4cn[nH]c4c3)n2)cc(Cl)c1O [R935264, N2-(3-Chloro-4-hydroxy-3-methylphenyl)-5-fluoro-N4-(indazoline-6-yl)-2,4-pyrimidinediamine]	0.135 µM	> 10 µM
CNC(=O)COc1cccc(Nc2ncc(F)c(Nc3ccc4[nH]ncc4c3)n2)c1 [R935279, 5-Fluoro-N4-(indazoline-5-yl)-N2-[3-(N-methylaminocarbonylmethyleneoxy)phenyl]-2,4-pyrimidinediamine]	0.889 µM	> 10 µM
CNC(=O)COc1cccc(Nc2ncc(F)c(Nn3cccc3)n2)c1 [R935281, 5-Fluoro-N2-[3-(N-methylaminocarbonylmethyleneoxy)phenyl]-N4-(1H-pyrrol-1-yl)-2,4-pyrimidinediamine]	1.4 µM	> 10 µM
CCOC(=O)CCn1ncc2ccc(Nc3ncc(F)c(Nc4ccc5c(c4)OCCO5)n3)cc21 [R935286, N2-[1-(2-ethoxycarbonylethyl)indazoline-6-yl]-N4-(3,4-ethylenedioxyphenyl)-5-fluoro-2,4-pyrimidinediamine]	1.16 µM	> 10 µM
OCCCn1ncc2ccc(Nc3ncc(F)c(Nc4ccc5c(c4)OCCO5)n3)cc21 [R935287, N4-(3,4-Ethylenedioxyphenyl)-5-fluoro-N2-[1-(3-hydroxypropyl)indazoline-6-yl]-2,4-pyrimidinediamine]	0.403 µM	> 10 µM
CNC(=O)CCn1ncc2ccc(Nc3nc(Nc4ccc5c(c4)OCCO5)ncc3F)cc21 [R935288, N2-(3,4-Ethylenedioxyphenyl)-5-fluoro-N4-[1-[2(N-methylaminocarbonyl)ethyl]-indazoline-6-yl]-2,4-pyrimidinediamine]	1.58 µM	> 10 µM
CCOC(=O)CCn1ncc2ccc(Nc3nc(Nc4cccc(OC(C)C)c4)ncc3F)cc21 [R935289, N4-[1-(2-Ethoxycarbonylethyl)indazoline-6-yl]-5-fluoro-N2-(isopropoxyphenyl)-2,4-pyrimidinediamine]	1.69 µM	> 10 µM
CC(C)Oc1ccc(Nc2nc(Nc3ccc4cnn(CCCO)c4c3)ncc2F)cc1 [R935290, 5-Fluoro-N2-[1-(3-hydroxypropyl)indazoline-6-yl]-N4-(4-isopropoxyphenyl)-2,4-pyrimidinediamine]	0.34 µM	> 10 µM
CNC(=O)CCn1ncc2ccc(Nc3ncc(F)c(Nc4ccc(OC(C)C)cc4)n3)cc21 [R935291, 5-Fluoro-N4-(4-isopropoxyphenyl)-N2-[1-[2(N-methylamino)carbonyl]ethyl-indazoline-6-yl]-2,4-pyrimidinediamine]	1.36 µM	> 10 µM
CNC(=O)CCn1ncc2ccc(Nc3ncc(F)c(Nc4cccc(O)c4)n3)cc21 [R935294, 5-Fluoro-N4-(3-hydroxyphenyl)-N2-[1-[2-(N-methylaminocarbonyl)ethyl]-indazoline-6-yl]-2,4-pyrimidinediamine]	0.388 µM	> 10 µM
CCOC(=O)CCn1ncc2ccc(Nc3nc(Nc4ccc5oc(C(=O)OC)cc5c4)ncc3F)cc21 [R935295, N4-[1-(2-Ethoxycarbonylethyl)indazoline-6-yl]-5-fluoro-N2-(2-methoxycarbonylbenzofur-5-yl)-2,4-pyrimidinediamine]	1.94 µM	> 10 µM
CNC(=O)CCn1ncc2ccc(Nc3ncc(F)c(Nc4ccc5oc(C(=O)NC)cc5c4)n3)cc21 [R935297, 5-Fluoro-N4-[2-(N-methylaminocarbonyl)benzofuran-5-yl]-N2-[1-[2(N-methylaminocarbonyl)ethyl]-indazoline-6-yl]-2,4-pyrimidinediamine]	7.33 µM	> 10 µM
Cn1cc2cc(Nc3ncc(F)c(Nc4cccc(O)c4)n3)ccc2n1 [R935299, 5-Fluoro-N4-(3-hydroxyphenyl)-N2-(2-methy-indazoline-5-yl)-2,4-pyrimidinediamine]	0.21 µM	> 10 µM
Cn1cc2cc(Nc3ncc(F)c(Nc4ccc5c(c4)OCCO5)n3)ccc2n1 [R935300, N4-(3,4-Ethyelenedioxyphenyl)-5-fluoro-N2-(2-methy-indazoline-5-yl)-2,4-pyrimidinediamine]	0.243 µM	> 10 µM
OCCCn1ncc2cc(Nc3ncc(F)c(Nc4ccc5c(c4)OCCO5)n3)ccc21 [R935302, N4-(3,4-Ethylenedioxyphenyl)-5-fluoro-N2-[1-(3-hydroxypropyl)indazoline-5-yl]-2,4-pyrimidinediamine]	0.189 µM	> 10 µM
OCCCn1ncc2cc(Nc3ncc(F)c(Nc4cccc(O)c4)n3)ccc21 [R935304, 5-Fluoro-N4-(3-hydroxyphenyl)-N2-[1-(3-hydroxypropyl)indazoline-5-yl]-2,4-pyrimidinediamine]	0.188 µM	> 10 µM
